Measured values as given in patent US10582709B2, “Butyrolactones as herbicides” (FMC Corporation, priority 2015, dated 2020).

Experiments:
Assay type in all cases: in vivo
[1] = test system: crabgrass (large crabgrass, Digitaria sanguinalis); assay: Test A preemergence, crabgrass; details: visual rating after approx. 10 d, 0 to 100 scale, 0 no effect, 100 complete control
From the text: (§1) Seeds of plant species selected from barnyardgrass (Echinochloa crus-galli), crabgrass (large crabgrass, Digitaria sanguinalis), kochia (Kochia scoparia), ragweed (common ragweed, Ambrosia elatior), morningglory (Ipomoea spp.), velvetleaf (Abutilon theophrasti), ryegrass, Italian (Italian ryegrass, Lolium multiflorum), foxtail, giant (giant foxtail, Setaria faberii), wheat (Triticum aestivum), corn (Zea mays), and pigweed (Amaranthus retroflexus), were planted into a blend of loam soil and sand and treated preemergence with a directed soil spray using test chemicals formulated in a non-phytotoxic solvent mixture which included a surfactant. At the same time, plants selected from these crop and weed species and also blackgrass (Alopecurus myosuroides), and galium (catchweed bedstraw, Galium aparine), were planted in pots containing the same blend of loam soil and sand and treated with postemergence applications of test chemicals formulated in the same manner. Plants ranged in height from 2 to 10 cm and were in the one- to two-leaf stage for the postemergence treatment. Treated plants and untreated controls were maintained in a greenhouse for approximately 10 d, after which time all treated plants were compared to untreated controls and visually evaluated for injury. Plant response ratings, summarized in Table A, are based on a 0 to 100 scale where 0 is no effect and 100 is complete control. A dash (-) response means no test result.

[2] = test system: wheat (Triticum aestivum); assay: Test A preemergence, wheat; details: visual rating after approx. 10 d, 0 to 100 scale, 0 no effect, 100 complete control
From the text: as §1

[3] = test system: velvetleaf (Abutilon theophrasti); assay: Test A preemergence, velvetleaf; details: visual rating after approx. 10 d, 0 to 100 scale, 0 no effect, 100 complete control
From the text: as §1

[4] = test system: wheat (Triticum aestivum); assay: Test A postemergence, wheat; details: visual rating after approx. 10 d, 0 to 100 scale, 0 no effect, 100 complete control
In short: (§2)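 Following ~10 d greenhouse growth, treated plants were compared with untreated controls and injury rated 0 (no effect) to 100 (complete control). Treatments: directed spray onto seeded loam/sand soil, or onto one- to two-leaf plants 2–10 cm tall, compound formulated in solvent with surfactant.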

[5] = test system: velvetleaf (Abutilon theophrasti); assay: Test A postemergence, velvetleaf; details: visual rating after approx. 10 d, 0 to 100 scale, 0 no effect, 100 complete control
From the text: as §1

[6] = test system: rice (Oryza sativa); assay: Test B flooded paddy test, rice; details: 250 g ai/ha; applied to paddy water at 2-leaf stage; 13 to 15 d; scale 0 no effect to 100 complete control
In short: (§3)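 Plants at the 2-leaf stage were flooded to 3 cm above soil, and test compounds were applied directly into the paddy water, which was held at that depth throughout. After 13 to 15 d in a greenhouse, injury was rated visually against untreated controls on a 0–100 scale (0 no effect, 100 complete control).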

[7] = test system: crabgrass (large crabgrass, Digitaria sanguinalis); assay: Test A postemergence, crabgrass; details: visual rating after approx. 10 d, 0 to 100 scale, 0 no effect, 100 complete control
From the text: as §1

[8] = test system: barnyardgrass (Echinochloa crus-galli); assay: Test A preemergence, barnyardgrass; details: visual rating after approx. 10 d, 0 to 100 scale, 0 no effect, 100 complete control
In short: as §2

[9] = test system: ducksalad (Heteranthera limosa); assay: Test B flooded paddy test, ducksalad; details: 250 g ai/ha; applied to paddy water at 2-leaf stage; 13 to 15 d; scale 0 no effect to 100 complete control
In short: as §3

[10] = test system: barnyardgrass (Echinochloa crus-galli); assay: Test A postemergence, barnyardgrass; details: visual rating after approx. 10 d, 0 to 100 scale, 0 no effect, 100 complete control
In short: as §2

[11] = test system: pigweed (Amaranthus retroflexus); assay: Test A postemergence, pigweed; details: visual rating after approx. 10 d, 0 to 100 scale, 0 no effect, 100 complete control
In short: as §2

[12] = test system: foxtail, giant (giant foxtail, Setaria faberii); assay: Test A preemergence, giant foxtail; details: visual rating after approx. 10 d, 0 to 100 scale, 0 no effect, 100 complete control
In short: as §2

[13] = test system: barnyardgrass (Echinochloa crus-galli); assay: Test B flooded paddy test, barnyardgrass; details: 250 g ai/ha; applied to paddy water at 2-leaf stage; 13 to 15 d; scale 0 no effect to 100 complete control
In short: as §3

[14] = test system: pigweed (Amaranthus retroflexus); assay: Test A preemergence, pigweed; details: visual rating after approx. 10 d, 0 to 100 scale, 0 no effect, 100 complete control
In short: as §2

[15] = test system: corn (Zea mays); assay: Test A preemergence, corn; details: visual rating after approx. 10 d, 0 to 100 scale, 0 no effect, 100 complete control
From the text: as §1

[16] = test system: foxtail, giant (giant foxtail, Setaria faberii); assay: Test A postemergence, giant foxtail; details: visual rating after approx. 10 d, 0 to 100 scale, 0 no effect, 100 complete control
In short: as §2

[17] = test system: morningglory (Ipomoea spp.); assay: Test A postemergence, morningglory; details: visual rating after approx. 10 d, 0 to 100 scale, 0 no effect, 100 complete control
From the text: as §1

[18] = test system: morningglory (Ipomoea spp.); assay: Test A preemergence, morningglory; details: visual rating after approx. 10 d, 0 to 100 scale, 0 no effect, 100 complete control
From the text: as §1

[19] = test system: sedge, umbrella (small-flower umbrella sedge, Cyperus difformis); assay: Test B flooded paddy test, umbrella sedge; details: 250 g ai/ha; applied to paddy water at 2-leaf stage; 13 to 15 d; scale 0 no effect to 100 complete control
In short: as §3

[20] = test system: corn (Zea mays); assay: Test A postemergence, corn; details: 1000 g ai/ha, visual rating after approx. 10 d, 0 to 100 scale, 0 no effect, 100 complete control
In short: as §2

Compound: O=C(Nc1ccccc1Cl)C1C(=O)OCC1c1ccc(F)c(F)c1 (racemic) [Compound 3]
- Plant response rating, Crabgrass ([1]; 125 g ai/ha): 40
- Plant response rating, Crabgrass ([1]; 500 g ai/ha): 50
- Plant response rating, Wheat ([2]; 125 g ai/ha): 0
- Plant response rating, Wheat ([2]; 500 g ai/ha): 0
- Plant response rating, Velvetleaf ([3]; 125 g ai/ha): 0
- Plant response rating, Velvetleaf ([3]; 500 g ai/ha): 0
- Plant response rating, Wheat ([4]; 125 g ai/ha): 0
- Plant response rating, Wheat ([4]; 500 g ai/ha): 0
- Plant response rating, Velvetleaf ([5]; 125 g ai/ha): 0
- Plant response rating, Velvetleaf ([5]; 500 g ai/ha): 0
- Plant response rating, Flood, Rice [6]: 0
- Plant response rating, Crabgrass ([7]; 125 g ai/ha): 60
- Plant response rating, Crabgrass ([7]; 500 g ai/ha): 70
- Plant response rating, Barnyardgrass ([8]; 125 g ai/ha): 0
- Plant response rating, Barnyardgrass ([8]; 500 g ai/ha): 30
- Plant response rating, Flood, Ducksalad [9]: 0
- Plant response rating, Barnyardgrass ([10]; 125 g ai/ha): 0
- Plant response rating, Barnyardgrass ([10]; 500 g ai/ha): 0
- Plant response rating, Pigweed ([11]; 125 g ai/ha): 0
- Plant response rating, Pigweed ([11]; 500 g ai/ha): 0
- Plant response rating, Foxtail, Giant ([12]; 125 g ai/ha): 70
- Plant response rating, Foxtail, Giant ([12]; 500 g ai/ha): 80
- Plant response rating, Flood, Barnyardgrass [13]: 0
- Plant response rating, Pigweed ([14]; 125 g ai/ha): 0
- Plant response rating, Pigweed ([14]; 500 g ai/ha): 0
- Plant response rating, Corn ([15]; 125 g ai/ha): 0
- Plant response rating, Corn ([15]; 500 g ai/ha): 0
- Plant response rating, Foxtail, Giant ([16]; 125 g ai/ha): 50
- Plant response rating, Foxtail, Giant ([16]; 500 g ai/ha): 60
- Plant response rating, Morningglory ([17]; 125 g ai/ha): 0
- Plant response rating, Morningglory ([17]; 500 g ai/ha): 0
- Plant response rating, Morningglory ([18]; 125 g ai/ha): 0
- Plant response rating, Morningglory ([18]; 500 g ai/ha): 0
- Plant response rating, Flood, Sedge, Umbrella [19]: 0

Compound: O=C(Nc1ccccc1F)C1C(=O)OCC1c1ccc(F)c(F)c1 (racemic) [Compound 4]
- Plant response rating, Crabgrass ([1]; 1000 g ai/ha): 90
- Plant response rating, Wheat ([2]; 1000 g ai/ha): 0
- Plant response rating, Velvetleaf ([3]; 1000 g ai/ha): 0
- Plant response rating, Wheat ([4]; 1000 g ai/ha): 0
- Plant response rating, Velvetleaf ([5]; 1000 g ai/ha): 0
- Plant response rating, Flood, Rice [6]: 15
- Plant response rating, Crabgrass ([7]; 1000 g ai/ha): 90
- Plant response rating, Barnyardgrass ([8]; 1000 g ai/ha): 70
- Plant response rating, Flood, Ducksalad [9]: 0
- Plant response rating, Barnyardgrass ([10]; 1000 g ai/ha): 70
- Plant response rating, Pigweed ([11]; 1000 g ai/ha): 0
- Plant response rating, Foxtail, Giant ([12]; 1000 g ai/ha): 80
- Plant response rating, Flood, Barnyardgrass [13]: 20
- Plant response rating, Pigweed ([14]; 1000 g ai/ha): 0
- Plant response rating, Corn ([15]; 1000 g ai/ha): 0
- Plant response rating, Foxtail, Giant ([16]; 1000 g ai/ha): 70
- Plant response rating, Morningglory ([17]; 1000 g ai/ha): 0
- Plant response rating, Morningglory ([18]; 1000 g ai/ha): 0
- Plant response rating, Flood, Sedge, Umbrella [19]: 0

Compound: O=C(Nc1ccccc1C(F)(F)F)C1C(=O)OCC1c1ccc(F)cc1 (stereo not shown) [Compound 6]
- Plant response rating, Crabgrass ([1]; 1000 g ai/ha): 80
- Plant response rating, Wheat ([2]; 1000 g ai/ha): 0
- Plant response rating, Velvetleaf ([3]; 1000 g ai/ha): 0
- Plant response rating, Wheat ([4]; 1000 g ai/ha): 0
- Plant response rating, Velvetleaf ([5]; 1000 g ai/ha): 0
- Plant response rating, Flood, Rice [6]: 0
- Plant response rating, Crabgrass ([7]; 1000 g ai/ha): 80
- Plant response rating, Barnyardgrass ([8]; 1000 g ai/ha): 20
- Plant response rating, Flood, Ducksalad [9]: 0
- Plant response rating, Barnyardgrass ([10]; 1000 g ai/ha): 20
- Plant response rating, Pigweed ([11]; 1000 g ai/ha): 0
- Plant response rating, Foxtail, Giant ([12]; 1000 g ai/ha): 80
- Plant response rating, Flood, Barnyardgrass [13]: 0
- Plant response rating, Pigweed ([14]; 1000 g ai/ha): 0
- Plant response rating, Corn ([15]; 1000 g ai/ha): 0
- Plant response rating, Corn [20]: 0
- Plant response rating, Foxtail, Giant ([16]; 1000 g ai/ha): 80
- Plant response rating, Morningglory ([17]; 1000 g ai/ha): 0
- Plant response rating, Morningglory ([18]; 1000 g ai/ha): 0
- Plant response rating, Flood, Sedge, Umbrella [19]: 0
